For assay [1] the following is noted: cited from earlier work.
Assay [2] addresses T1, PAD2 (Homo sapiens, UniProt Q9Y2J8).
T1 construct: made in house
The assay is described as follows: Inactivation kinetics, PAD2. Particulars: for kinact/KI: a: single kobs determined, b: from a linear fit, other footnotes: from kinact and KI; for Fold PAD2 Selectivity: kinact/KI relative to least inhibited isozyme (1.0). It is filed as biochemical. The method in brief:
(§1)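 PAD1, 2 or 4 (2.0 μM) or PAD3 (5.0 μM) preincubated at 37 °C with varying inhibitor in 50 mM HEPES, 10 mM CaCl2, 2 mM DTT, pH 7.6. Timed aliquots assayed 15 min with 10 mM BAEE (BAA for PAD3); citrulline quantified by COLDER.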

For the next assay, the target named is T2, PAD1 (Homo sapiens, UniProt Q9ULC6).
T2 construct: made in house
T2 sequence (Q9ULC6 1-663): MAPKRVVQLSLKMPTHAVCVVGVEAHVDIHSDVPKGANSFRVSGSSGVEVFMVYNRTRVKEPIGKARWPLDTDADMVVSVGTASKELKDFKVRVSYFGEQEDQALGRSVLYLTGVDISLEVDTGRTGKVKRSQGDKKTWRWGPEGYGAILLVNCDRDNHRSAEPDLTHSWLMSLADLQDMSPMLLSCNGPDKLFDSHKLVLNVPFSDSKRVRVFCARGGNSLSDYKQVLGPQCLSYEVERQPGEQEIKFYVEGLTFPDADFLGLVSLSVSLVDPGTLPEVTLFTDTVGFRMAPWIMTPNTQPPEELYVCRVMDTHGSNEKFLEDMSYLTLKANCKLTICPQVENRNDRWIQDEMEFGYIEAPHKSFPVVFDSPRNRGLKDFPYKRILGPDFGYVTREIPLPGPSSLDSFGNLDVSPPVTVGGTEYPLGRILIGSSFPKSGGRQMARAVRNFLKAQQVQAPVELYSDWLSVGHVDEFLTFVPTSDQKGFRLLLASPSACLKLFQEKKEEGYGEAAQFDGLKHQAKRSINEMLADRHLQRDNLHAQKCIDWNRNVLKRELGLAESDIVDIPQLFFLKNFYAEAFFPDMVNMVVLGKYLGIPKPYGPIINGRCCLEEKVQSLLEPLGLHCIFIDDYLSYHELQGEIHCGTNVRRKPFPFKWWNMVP
The assay is described as follows: Inactivation kinetics, PAD1. In kind it is biochemical. The note with it: for kinact/KI: a: single kobs determined, b: from a linear fit; for Fold PAD1 Selectivity: kinact/KI relative to least inhibited isozyme (1.0). The method, boiled down: as §1

Assay [3] deals with T1, PAD2. The assay is described as follows: In vitro labeling of PAD2 with clickable probes to determine limit of detection. In kind it is binding. The note with it: probe clicked with TAMRA-N3. The method, then:
In Vitro Labeling o f PAD2 with BB-F-Yne (5u) and BB-C-Yne (5v) to Determine their Limit of detection (LOD)
BB-F-Yne (5u) or BB-Cl-Yne (5v) (10 μM) were incubated with decreasing concentrations of recombinant PAD2 (1.0 to 0.025 μM) in the presence of CaCl2 in 1×PBS (2 mM) at 37° C. for 1 h. The probe labeled enzymes were coupled to TAMRA-N3 (20 μM) in the presence of 1×TBTA (0.31 mM), sodium ascorbate (2 mM) and freshly prepared CuSO4 (1 mM). The tubes were gently tumbled for 1 h. […] The bands were visualized by scanning the gel in a typhoon scanner (approximate excitation/emission maxima 546/579, respectively).

A further assay has as its target T3, PAD3 (Homo sapiens, UniProt Q9ULW8).
T3 construct: made in house
T3 sequence (Q9ULW8 1-664): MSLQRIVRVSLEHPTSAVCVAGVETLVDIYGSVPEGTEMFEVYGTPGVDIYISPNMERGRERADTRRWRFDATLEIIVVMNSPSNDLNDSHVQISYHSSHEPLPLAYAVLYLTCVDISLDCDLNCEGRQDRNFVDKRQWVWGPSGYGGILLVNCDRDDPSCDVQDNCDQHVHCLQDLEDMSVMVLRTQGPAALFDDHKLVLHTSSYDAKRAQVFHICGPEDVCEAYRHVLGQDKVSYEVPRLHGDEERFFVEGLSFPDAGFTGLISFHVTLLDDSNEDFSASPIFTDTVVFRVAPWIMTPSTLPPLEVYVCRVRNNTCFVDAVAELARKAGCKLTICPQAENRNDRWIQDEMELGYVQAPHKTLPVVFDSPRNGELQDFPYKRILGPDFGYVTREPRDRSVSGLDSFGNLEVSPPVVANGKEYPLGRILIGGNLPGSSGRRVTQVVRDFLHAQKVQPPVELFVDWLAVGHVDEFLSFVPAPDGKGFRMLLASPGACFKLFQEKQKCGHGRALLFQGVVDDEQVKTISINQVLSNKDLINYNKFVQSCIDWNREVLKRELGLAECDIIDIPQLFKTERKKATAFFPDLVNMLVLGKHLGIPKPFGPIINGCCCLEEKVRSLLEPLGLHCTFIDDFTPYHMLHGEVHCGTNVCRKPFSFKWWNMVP
Kind of assay: Inactivation kinetics, PAD3. In kind it is biochemical. Particulars: for kinact/KI: a: single kobs determined; for Fold PAD3 Selectivity: kinact/KI relative to least inhibited isozyme (1.0). The method, boiled down: as §1

The target of a further assay is T4, PAD4 (Homo sapiens, UniProt Q9UM07).
T4 construct: made in house
Kind of assay: Inactivation kinetics, PAD4. In kind it is biochemical. Particulars: for kinact/KI: a: single kobs determined, b: from a linear fit; for Fold PAD4 Selectivity: kinact/KI relative to least inhibited isozyme (1.0). The method in brief:
as §1

T1 sequence (Q9Y2J8 whole entry): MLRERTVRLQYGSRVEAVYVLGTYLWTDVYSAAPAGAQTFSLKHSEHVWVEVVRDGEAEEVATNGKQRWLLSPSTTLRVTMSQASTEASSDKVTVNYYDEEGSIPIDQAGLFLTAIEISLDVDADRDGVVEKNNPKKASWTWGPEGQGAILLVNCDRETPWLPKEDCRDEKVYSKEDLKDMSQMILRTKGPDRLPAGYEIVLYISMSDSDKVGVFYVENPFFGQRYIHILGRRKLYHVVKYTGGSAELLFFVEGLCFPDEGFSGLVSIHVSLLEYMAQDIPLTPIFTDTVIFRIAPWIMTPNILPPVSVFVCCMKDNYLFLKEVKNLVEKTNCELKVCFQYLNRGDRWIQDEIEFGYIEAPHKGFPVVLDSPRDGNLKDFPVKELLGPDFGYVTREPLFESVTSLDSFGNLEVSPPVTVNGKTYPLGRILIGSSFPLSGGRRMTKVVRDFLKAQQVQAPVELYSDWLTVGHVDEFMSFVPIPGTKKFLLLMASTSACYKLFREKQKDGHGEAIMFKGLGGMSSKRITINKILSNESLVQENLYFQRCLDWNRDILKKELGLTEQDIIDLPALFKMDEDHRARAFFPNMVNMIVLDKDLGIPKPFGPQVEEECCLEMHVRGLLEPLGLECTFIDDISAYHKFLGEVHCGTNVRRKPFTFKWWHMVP
T4 sequence (Q9UM07 whole entry): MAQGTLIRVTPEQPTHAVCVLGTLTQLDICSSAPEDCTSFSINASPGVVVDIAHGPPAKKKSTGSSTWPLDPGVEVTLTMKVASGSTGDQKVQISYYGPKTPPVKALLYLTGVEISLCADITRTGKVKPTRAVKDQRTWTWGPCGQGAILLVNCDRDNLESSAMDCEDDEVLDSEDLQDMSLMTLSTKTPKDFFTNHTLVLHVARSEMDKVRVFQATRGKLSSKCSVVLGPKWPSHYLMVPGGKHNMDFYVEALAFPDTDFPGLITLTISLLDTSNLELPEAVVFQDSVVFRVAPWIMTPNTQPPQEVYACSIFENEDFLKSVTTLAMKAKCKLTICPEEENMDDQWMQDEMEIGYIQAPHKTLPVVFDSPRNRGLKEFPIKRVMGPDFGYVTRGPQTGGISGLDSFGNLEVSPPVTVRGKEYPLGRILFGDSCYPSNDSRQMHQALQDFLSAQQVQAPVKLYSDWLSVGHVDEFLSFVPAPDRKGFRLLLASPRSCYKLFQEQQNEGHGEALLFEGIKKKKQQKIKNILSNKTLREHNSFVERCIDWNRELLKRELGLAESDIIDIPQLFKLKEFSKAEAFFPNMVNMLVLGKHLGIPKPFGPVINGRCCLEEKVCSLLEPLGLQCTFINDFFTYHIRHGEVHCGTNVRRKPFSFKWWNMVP

On to `N=C(CCl)NCCC[C@H](NC(=O)c1ccccc1)C(N)=O` [Cl-amidine], for which, in assay [1] (rheumatoid arthritis, lupus, ulcerative colitis, spinal cord injury, breast cancer, atherosclerosis), the “efficacy in animal models” value is listed as “demonstrated efficacy”.
In the case of `C#Cc1ccc(-c2ccc(C(=O)N[C@@H](CCCNC(=N)CF)c3nc4ccccc4[nH]3)cc2)cc1` [Compound 5u, N1-4′-ethynyl-[1,1′-Phenyl]benzol-N5-(2-fluoro-1-iminoethyl)-1-(1H-benzo[d]imidazol-2-yl)-L-ornithine], on PAD2 [2], the second-order inactivation constant (kinact/KI) (in general, the second-order rate constant of inactivation) is 16.2 M⁻¹ s⁻¹ and the “Fold PAD2 Selectivity” value was 1.0 fold. Moreover, on PAD1, the kinact/KI was 77.5 M⁻¹ s⁻¹ and the “Fold PAD1 Selectivity” value is 4.8 fold. Moreover, the “limit of detection (LOD) for PAD2” value at PAD2 [3] is 375 fmol. Moreover, on PAD3, the kinact/KI was 17.1 M⁻¹ s⁻¹ and the “Fold PAD3 Selectivity” value came out at 1.1 fold. Further, at PAD4, the second-order inactivation constant (kinact/KI) was 29.5 M⁻¹ s⁻¹ and the “Fold PAD4 Selectivity” value came out at 1.8 fold.
Turning to `Cn1c([C@H](CCCNC(=N)CCl)NC(=O)c2ccccc2C(=O)OC(C)(C)C)nc2ccccc21` [Compound 9b, N1-(2-tert-butylcarboxy)benzol-N5-(2-chloro-1-iminoethyl)-1-(1-methyl-benzo[d]imidazol-2-yl)-L-ornithine], at PAD2 [2], the kinact/KI is 55.2 M⁻¹ s⁻¹ and the “Fold PAD2 Selectivity” value is 1.0 fold. For the same compound, at PAD1, the kinact/KI is 325 M⁻¹ s⁻¹ and the “Fold PAD1 Selectivity” value was 5.9 fold. In addition, at PAD3, the inactivation efficiency (kinact/KI) was 86.7 M⁻¹ s⁻¹ and the “Fold PAD3 Selectivity” value worked out at 1.6 fold. At PAD4, the second-order inactivation constant (kinact/KI) is 64.2 M⁻¹ s⁻¹ and the “Fold PAD4 Selectivity” value came out at 1.2 fold.
Take `CCn1c([C@H](CCCNC(=N)CF)NC(=O)c2ccccc2C(=O)OC(C)(C)C)nc2ccccc21` [Compound 9c, N1-(2-tert-butylcarboxy)benzoyl-N5-(2-fluoro-1-iminoethyl)-1-(1-ethyl-benzo[d]imidazol-2-yl)-L-ornithine]: on PAD2 [2], the kinact/KI is 102 M⁻¹ s⁻¹ and the “Fold PAD2 Selectivity” value is 14 fold. On PAD1, the kinact/KI was 15.8 M⁻¹ s⁻¹ and the “Fold PAD1 Selectivity” value is listed as 2.2 fold. Also, on PAD3, the second-order inactivation constant (kinact/KI) is 51.7 M⁻¹ s⁻¹ and the “Fold PAD3 Selectivity” value came out at 7.0 fold. Moreover, on PAD4, the kinact/KI was 7.33 M⁻¹ s⁻¹ and the “Fold PAD4 Selectivity” value worked out at 1.0 fold.
As to `CCn1c([C@H](CCCNC(=N)CCl)NC(=O)c2ccccc2C(=O)OC(C)(C)C)nc2ccccc21` [Compound 9d, N1-(2-tert-butylcarboxy)benzoyl-N5-(2-chloro-1-iminoethyl)-1-(1-ethyl-benzo[d]imidazol-2-yl)-L-ornithine], at PAD2 [2], the inactivation efficiency (kinact/KI) is 152 M⁻¹ s⁻¹ and the “Fold PAD2 Selectivity” value was 7.0 fold. In addition, on PAD1, the kinact/KI is 200 M⁻¹ s⁻¹ and the “Fold PAD1 Selectivity” value is recorded as 9.3 fold. Also, on PAD3, the kinact/KI is 78.3 M⁻¹ s⁻¹ and the “Fold PAD3 Selectivity” value is given as 3.6 fold. Further, on PAD4, the inactivation efficiency (kinact/KI) was 21.7 M⁻¹ s⁻¹ and the “Fold PAD4 Selectivity” value was determined as 1.0 fold.
Regarding `CC(C)n1c([C@H](CCCNC(=N)CF)NC(=O)c2ccccc2C(=O)OC(C)(C)C)nc2ccccc21` [Compound 9e, N1-(2-tert-butylcarboxy)benzoyl-N5-(2-fluoro-1-iminoethyl)-1-(1-isopropyl-benzo[d]imidazol-2-yl)-L-omithine], at PAD2 [2], the inactivation efficiency (kinact/KI) is 50.2 M⁻¹ s⁻¹ and the “Fold PAD2 Selectivity” value stood at 19 fold. For the same compound, at PAD1, the kinact/KI is 23.7 M⁻¹ s⁻¹ and the “Fold PAD1 Selectivity” value was determined as 8.9 fold. Moreover, on PAD3, the kinact/KI is 35 M⁻¹ s⁻¹ and the “Fold PAD3 Selectivity” value is recorded as 13 fold. Moreover, at PAD4, the kinact/KI was 2.67 M⁻¹ s⁻¹ and the “Fold PAD4 Selectivity” value is on record as 1.0 fold.
For `CC(C)n1c([C@H](CCCNC(=N)CCl)NC(=O)c2ccccc2C(=O)OC(C)(C)C)nc2ccccc21` [Compound 9f, N1-(2-tert-butylcarboxy)benzoyl-N5-(2-chloro-1-iminoethyl)-1-(1-isopropyl-benzo[d]imidazol-2-yl)-L-omithine], on PAD2 [2], the kinact/KI was 119 M⁻¹ s⁻¹ and the “Fold PAD2 Selectivity” value is 11 fold. In addition, at PAD1, the kinact/KI is 56 M⁻¹ s⁻¹ and the “Fold PAD1 Selectivity” value amounted to 4.9 fold. Also, on PAD3, the kinact/KI is 80 M⁻¹ s⁻¹ and the “Fold PAD3 Selectivity” value stood at 7.1 fold. Also, at PAD4, the inactivation efficiency (kinact/KI) was 11.3 M⁻¹ s⁻¹ and the “Fold PAD4 Selectivity” value is 1.0 fold.
On to GSK199, for which, in assay [1] (in vivo), the “efficacy in an RA model” value is given as “shows efficacy”.

Values taken from patent US11208386B2, “Inhibitors of protein arginine deiminases (PADs) and methods of preparation and use thereof” (University of Massachusetts, priority 2016, dated 2021).
